Key:
Experiment in all cases: isothermal titration calorimetry
[1] = biological target: T1, Gal-3–Gal-7; assay type: binding, Homo sapiens; conditions: 25 °C, pH 7.2, 20 mM phosphate, 10 mM NaCl, 10 mM beta-mercaptoethanol; one-set-of-sites, n fitted
T1 construct: gene LGALS3; one polypeptide; recombinant from E. coli
Description: isothermal titration calorimetry on Gal-3–Gal-7

[2] = biological target: T2, Gal-7–8S–Gal-3; assay type: binding, Homo sapiens; conditions: 25 °C, pH 7.2, 20 mM phosphate, 10 mM NaCl, 10 mM beta-mercaptoethanol; one-set-of-sites, n fitted; LacNAc 2 mM
T2 construct: gene LGALS7; one polypeptide; recombinant from E. coli
Description: isothermal titration calorimetry on Gal-7–8S–Gal-3

[3] = biological target: T3, Gal-3–8S–Gal-7; assay type: binding, Homo sapiens; conditions: 25 °C, pH 7.2, 20 mM phosphate, 10 mM NaCl, 10 mM beta-mercaptoethanol; one-set-of-sites, n fitted
T3 construct: gene LGALS3; one polypeptide; recombinant from E. coli
Description: isothermal titration calorimetry on Gal-3–8S–Gal-7

[4] = biological target: T4, Gal-1–8S–Gal-7; assay type: binding, Homo sapiens; conditions: 25 °C, pH 7.2, 20 mM phosphate, 10 mM NaCl, 10 mM beta-mercaptoethanol; one-set-of-sites, n fitted
T4 construct: gene LGALS1; Gal-1 CRD N-terminal, 33-amino-acid linker of Gal-8S, Gal-7 CRD C-terminal; one polypeptide; recombinant from E. coli
Description: isothermal titration calorimetry on Gal-1–8S–Gal-7

[5] = biological target: T5, Gal-7–Gal-1; assay type: binding, Homo sapiens; conditions: 25 °C, pH 7.2, 20 mM phosphate, 10 mM NaCl, 10 mM beta-mercaptoethanol; one-set-of-sites, n fitted
T5 construct: gene LGALS7; direct fusion, Gal-7 CRD N-terminal, Gal-1 CRD C-terminal; one polypeptide; recombinant from E. coli
Description: isothermal titration calorimetry on Gal-7–Gal-1

[6] = biological target: T6, Gal-1–Gal-7; assay type: binding, Homo sapiens; conditions: 25 °C, pH 7.2, 20 mM phosphate, 10 mM NaCl, 10 mM beta-mercaptoethanol; one-set-of-sites, n fitted
T6 construct: gene LGALS1; direct fusion, Gal-1 CRD N-terminal, Gal-7 CRD C-terminal; one polypeptide; recombinant from E. coli
Description: isothermal titration calorimetry on Gal-1–Gal-7

[7] = biological target: T7, Gal-7–8S–Gal-7 (Homo sapiens, UniProt P47929); assay type: binding; conditions: 25 °C, pH 7.2, 20 mM phosphate, 10 mM NaCl, 10 mM beta-mercaptoethanol; one-set-of-sites, n fitted
T7 construct: gene LGALS7; two Gal-7 CRDs in one polypeptide joined by the 33-amino-acid linker of Gal-8S (covalent homodimer); recombinant from E. coli
Description: isothermal titration calorimetry on Gal-7–8S–Gal-7

[8] = biological target: T8, Gal-7 (Homo sapiens, UniProt P47929); assay type: binding; conditions: 25 °C
T8 construct: gene LGALS7; wild type, recombinant from E. coli, lactosylated Sepharose; non-covalent homodimer
Description: isothermal titration calorimetry on Gal-7 | TF) antigen CD176) interacts with Gal-7’s CRD (Table S15, Fig. S11) | The data obtained with Lac (Table S14) corroborated the conclusions on activity

[9] = biological target: T9, Gal-7–Gal-7 (Homo sapiens, UniProt P47929); assay type: binding; conditions: 25 °C, pH 7.2, 20 mM phosphate, 10 mM NaCl, 10 mM beta-mercaptoethanol; one-set-of-sites, n fitted; LacNAc 10 mM
T9 construct: gene LGALS7; two Gal-7 CRDs directly fused in one polypeptide (covalent homodimer, no added residues); recombinant from E. coli
Description: isothermal titration calorimetry on Gal-7–Gal-7

[10] = biological target: T10, Gal-7–Gal-3; assay type: binding, Homo sapiens; conditions: 25 °C, pH 7.2, 20 mM phosphate, 10 mM NaCl, 10 mM beta-mercaptoethanol; one-set-of-sites, n fitted
T10 construct: gene LGALS7; one polypeptide; recombinant from E. coli
Description: isothermal titration calorimetry on Gal-7–Gal-3

T8 sequence (P47929 whole entry): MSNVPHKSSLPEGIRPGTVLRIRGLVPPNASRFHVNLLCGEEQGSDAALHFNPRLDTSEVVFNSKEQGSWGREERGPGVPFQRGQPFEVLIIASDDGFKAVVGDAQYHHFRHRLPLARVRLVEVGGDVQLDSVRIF
T9 sequence (P47929 whole entry, the tested form may be a part): as the sequence (P47929 whole entry) above
T7 sequence (P47929 whole entry): as above

| Kd [1] | Kd [2] | Kd [3] | Kd [4] | Kd [5] | Kd [6] | Kd [7] | Kd ([8]; pH 7.2, 20 mM phosphate, 10 mM NaCl, 10 mM beta-mercaptoethanol, one-set-of-sites, n fitted) | Kd [9] | Kd [10] | Kd ([8]; pH 7.2) | SMILES |
| --- | --- | --- | --- | --- | --- | --- | --- | --- | --- | --- | --- |
| 96.2 ± 2.1 µM | 32.5 ± 0.81 µM | 68.6 ± 6.56 µM | 162 ± 3.79 µM | 103 ± 6.11 µM | 175 ± 2.11 µM | 287 ± 9.55 µM | 316 ± 5.88 µM | 261 ± 6.21 µM | 86.5 ± 5.75 µM |  | CC(=O)N[C@H]1C(O)O[C@H](CO)[C@@H](O[C@@H]2O[C@H](CO)[C@H](O)[C@H](O)[C@H]2O)[C@@H]1O (stereo partly drawn) [LacNAc] |
|  |  |  |  |  |  |  |  |  |  | 323 ± 5.7 µM | OC[C@H]1O[C@@H](O[C@H]2[C@H](O)[C@@H](O)C(O)O[C@@H]2CO)[C@H](O)[C@@H](O)[C@H]1O (stereo partly drawn) [Lac] |
|  |  |  |  |  |  |  |  |  |  | 1250 ± 126 µM | CC(=O)N[C@H]1C(O)O[C@H](CO)[C@H](O)[C@@H]1O[C@@H]1O[C@H](CO)[C@H](O)[C@H](O)[C@H]1O (stereo partly drawn) [core 1 mucin-type O-glycan disaccharide] |

From article PMC8460509, “Imitating evolution’s tinkering by protein engineering reveals extension of human galectin-7 activity” (Histochemistry and cell biology, 2021)
